# “And” between values parts separate entries of the source, which are not always exact repeats. Equal entries are not always repeated.
# Key:
# Parameters in all cases: scale not given: the % may be the effect or the level left
# [1] = target: CDK4/Cyclin D3 (Homo sapiens) (UniProt P11802+P30281); test: Inhibition of human CDK4/cyclin D3 assessed as percent of control at 2000 nM by KINOMEscan assay relative to control; assay type: protein-complex assay
# [2] = target: Tyrosine-protein kinase ZAP-70 (Homo sapiens) (UniProt P43403); test: Inhibition of human ZAP70 assessed as percent of control at 2000 nM by KINOMEscan assay relative to control
# [3] = target: Cyclin-dependent kinase 18 (Homo sapiens) (UniProt Q07002); test: Inhibition of human PCTK3 assessed as percent of control at 2000 nM by KINOMEscan assay relative to control
# [4] = target: Tyrosine-protein kinase JAK3 (Homo sapiens) (UniProt P52333); test: Inhibition of human JAK3 JH1 catalytic domain assessed as percent of control at 2000 nM by KINOMEscan assay relative to control
# [5] = target: Atypical kinase COQ8B, mitochondrial (Homo sapiens) (UniProt Q96D53); test: Inhibition of human ADCK4 assessed as percent of control at 2000 nM by KINOMEscan assay relative to control
# [6] = target: Protein kinase C eta type (Homo sapiens) (UniProt P24723); test: Inhibition of human PRKCH assessed as percent of control at 2000 nM by KINOMEscan assay relative to control
# [7] = target: Tyrosine-protein kinase ABL1 (Homo sapiens) (UniProt P00519); test: Inhibition of non-phosphorylated human ABL1 assessed as percent of control at 2000 nM by KINOMEscan assay relative to control
# [8] = target: Serine/threonine-protein kinase SIK1 (Homo sapiens) (UniProt P57059); test: Inhibition of human SIK assessed as percent of control at 2000 nM by KINOMEscan assay relative to control
# [9] = target: Cyclin-dependent kinase 3 (Homo sapiens) (UniProt Q00526); test: Inhibition of human CDK3 assessed as percent of control at 2000 nM by KINOMEscan assay relative to control
# [10] = target: SNF-related serine/threonine-protein kinase (Homo sapiens) (UniProt Q9NRH2); test: Inhibition of human SNRK assessed as percent of control at 2000 nM by KINOMEscan assay relative to control
# [11] = target: Cyclin-dependent kinase 2 (Homo sapiens) (UniProt P24941); test: Inhibition of human CDK2 assessed as percent of control at 2000 nM by KINOMEscan assay relative to control
# [12] = target: Mitogen-activated protein kinase kinase kinase 1 (Homo sapiens) (UniProt Q13233); test: Inhibition of human MAP3K1 assessed as percent of control at 2000 nM by KINOMEscan assay relative to control
# [13] = system: Phosphatidylinositol 4,5-bisphosphate 3-kinase catalytic subunit alpha isoform (Homo sapiens), P42336 [H1047Y]; test: Inhibition of human PIK3CA H1047Y mutant assessed as percent of control at 2000 nM by KINOMEscan assay relative to control
# [14] = system: Tyrosine-protein kinase ABL1 (Homo sapiens), P00519 [Q252H]; test: Inhibition of non-phosphorylated human ABL1 Q252H mutant assessed as percent of control at 2000 nM by KINOMEscan assay relative to control
# [15] = target: Myosin light chain kinase family member 4 (Homo sapiens) (UniProt Q86YV6); test: Inhibition of human MYLK4 assessed as percent of control at 2000 nM by KINOMEscan assay relative to control
# [16] = target: Serine/threonine-protein kinase N1 (Homo sapiens) (UniProt Q16512); test: Inhibition of human PKN1 assessed as percent of control at 2000 nM by KINOMEscan assay relative to control
# [17] = target: Tyrosine-protein kinase Lck (Homo sapiens) (UniProt P06239); test: Inhibition of human LCK assessed as percent of control at 2000 nM by KINOMEscan assay relative to control
# [18] = target: Serine/threonine-protein kinase N2 (Homo sapiens) (UniProt Q16513); test: Inhibition of human PKN2 assessed as percent of control at 2000 nM by KINOMEscan assay relative to control
# [19] = target: Aurora kinase B (Homo sapiens) (UniProt Q96GD4); test: Inhibition of human AURKB assessed as percent of control at 2000 nM by KINOMEscan assay relative to control
# [20] = target: Dual specificity mitogen-activated protein kinase kinase 2 (Homo sapiens) (UniProt P36507); test: Inhibition of human MEK2 assessed as percent of control at 2000 nM by KINOMEscan assay relative to control
# [21] = target: Tyrosine-protein kinase Fer (Homo sapiens) (UniProt P16591); test: Inhibition of human FER assessed as percent of control at 2000 nM by KINOMEscan assay relative to control
# [22] = target: Phosphorylase b kinase gamma catalytic chain, liver/testis isoform (Homo sapiens) (UniProt P15735); test: Inhibition of human PHKG2 assessed as percent of control at 2000 nM by KINOMEscan assay relative to control
# [23] = target: Mitogen-activated protein kinase 10 (Homo sapiens) (UniProt P53779); test: Inhibition of human JNK3 assessed as percent of control at 2000 nM by KINOMEscan assay relative to control
# [24] = target: Cyclin-dependent kinase-like 5 (Homo sapiens) (UniProt O76039); test: Inhibition of human CDKL5 assessed as percent of control at 2000 nM by KINOMEscan assay relative to control
# [25] = target: cAMP-dependent protein kinase catalytic subunit alpha (Homo sapiens) (UniProt P17612); test: Inhibition of human PKAC-alpha assessed as percent of control at 2000 nM by KINOMEscan assay relative to control
# [26] = target: Serine/threonine-protein kinase PLK1 (Homo sapiens) (UniProt P53350); test: Inhibition of human PLK1 assessed as percent of control at 2000 nM by KINOMEscan assay relative to control
# [27] = target: MAP kinase-interacting serine/threonine-protein kinase 2 (Homo sapiens) (UniProt Q9HBH9); test: Inhibition of human MKNK2 assessed as percent of control at 2000 nM by KINOMEscan assay relative to control
# [28] = target: Fibroblast growth factor receptor 2 (Homo sapiens) (UniProt P21802); test: Inhibition of human FGFR2 assessed as percent of control at 2000 nM by KINOMEscan assay relative to control
# [29] = target: Ribosomal protein S6 kinase alpha-6 (Homo sapiens) (UniProt Q9UK32); test: Inhibition of human N-terminal RSK4 kinase domain 1 assessed as percent of control at 2000 nM by KINOMEscan assay relative to control
# [30] = target: Ribosomal protein S6 kinase alpha-5 (Homo sapiens) (UniProt O75582); test: Inhibition of human N-terminal RPS6KA5 kinase domain 1 assessed as percent of control at 2000 nM by KINOMEscan assay relative to control
# [31] = target: Leukocyte tyrosine kinase receptor (Homo sapiens) (UniProt P29376); test: Inhibition of human LTK assessed as percent of control at 2000 nM by KINOMEscan assay relative to control
# Sequence of Leukocyte tyrosine kinase receptor (Homo sapiens) (P29376 whole entry): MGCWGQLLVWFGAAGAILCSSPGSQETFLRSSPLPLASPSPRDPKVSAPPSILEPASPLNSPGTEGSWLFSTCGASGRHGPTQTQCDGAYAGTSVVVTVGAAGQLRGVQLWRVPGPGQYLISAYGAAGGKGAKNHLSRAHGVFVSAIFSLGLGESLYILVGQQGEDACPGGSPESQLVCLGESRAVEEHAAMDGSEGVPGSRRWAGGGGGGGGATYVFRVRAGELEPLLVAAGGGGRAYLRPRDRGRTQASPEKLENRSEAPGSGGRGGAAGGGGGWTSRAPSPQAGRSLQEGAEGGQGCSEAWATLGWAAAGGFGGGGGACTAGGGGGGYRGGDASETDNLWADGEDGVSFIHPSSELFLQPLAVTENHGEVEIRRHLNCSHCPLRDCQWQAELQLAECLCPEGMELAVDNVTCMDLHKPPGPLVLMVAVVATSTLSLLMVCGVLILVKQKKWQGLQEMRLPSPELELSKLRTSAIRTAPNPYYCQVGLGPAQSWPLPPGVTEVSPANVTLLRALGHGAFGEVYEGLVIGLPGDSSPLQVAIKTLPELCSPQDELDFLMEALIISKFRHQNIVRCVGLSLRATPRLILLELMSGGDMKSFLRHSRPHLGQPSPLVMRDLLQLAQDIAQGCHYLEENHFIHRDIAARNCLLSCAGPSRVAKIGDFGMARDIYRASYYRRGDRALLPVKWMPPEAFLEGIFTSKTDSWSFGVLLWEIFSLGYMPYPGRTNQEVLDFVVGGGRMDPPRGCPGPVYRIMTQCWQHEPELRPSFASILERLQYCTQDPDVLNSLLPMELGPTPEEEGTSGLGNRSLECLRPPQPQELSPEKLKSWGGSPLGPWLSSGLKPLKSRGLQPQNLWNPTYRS
# Sequence of Tyrosine-protein kinase Lck (Homo sapiens) (P06239 2-509 limits assumed): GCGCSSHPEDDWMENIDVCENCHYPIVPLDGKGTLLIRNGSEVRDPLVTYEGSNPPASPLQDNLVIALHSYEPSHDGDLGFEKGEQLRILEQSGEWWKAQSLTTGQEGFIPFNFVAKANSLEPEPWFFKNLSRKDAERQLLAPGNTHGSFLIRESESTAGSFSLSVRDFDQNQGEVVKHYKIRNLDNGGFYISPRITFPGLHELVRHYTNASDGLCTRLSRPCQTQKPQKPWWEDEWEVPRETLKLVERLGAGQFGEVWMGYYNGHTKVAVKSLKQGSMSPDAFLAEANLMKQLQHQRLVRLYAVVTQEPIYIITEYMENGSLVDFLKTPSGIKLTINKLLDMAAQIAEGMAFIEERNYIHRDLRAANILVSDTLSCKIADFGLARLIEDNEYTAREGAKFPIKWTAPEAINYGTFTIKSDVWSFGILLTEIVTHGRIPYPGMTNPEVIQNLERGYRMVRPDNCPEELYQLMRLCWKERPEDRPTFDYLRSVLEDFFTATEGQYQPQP
# Sequence of Ribosomal protein S6 kinase alpha-6 (Homo sapiens) (Q9UK32 whole entry, the tested form may be a part): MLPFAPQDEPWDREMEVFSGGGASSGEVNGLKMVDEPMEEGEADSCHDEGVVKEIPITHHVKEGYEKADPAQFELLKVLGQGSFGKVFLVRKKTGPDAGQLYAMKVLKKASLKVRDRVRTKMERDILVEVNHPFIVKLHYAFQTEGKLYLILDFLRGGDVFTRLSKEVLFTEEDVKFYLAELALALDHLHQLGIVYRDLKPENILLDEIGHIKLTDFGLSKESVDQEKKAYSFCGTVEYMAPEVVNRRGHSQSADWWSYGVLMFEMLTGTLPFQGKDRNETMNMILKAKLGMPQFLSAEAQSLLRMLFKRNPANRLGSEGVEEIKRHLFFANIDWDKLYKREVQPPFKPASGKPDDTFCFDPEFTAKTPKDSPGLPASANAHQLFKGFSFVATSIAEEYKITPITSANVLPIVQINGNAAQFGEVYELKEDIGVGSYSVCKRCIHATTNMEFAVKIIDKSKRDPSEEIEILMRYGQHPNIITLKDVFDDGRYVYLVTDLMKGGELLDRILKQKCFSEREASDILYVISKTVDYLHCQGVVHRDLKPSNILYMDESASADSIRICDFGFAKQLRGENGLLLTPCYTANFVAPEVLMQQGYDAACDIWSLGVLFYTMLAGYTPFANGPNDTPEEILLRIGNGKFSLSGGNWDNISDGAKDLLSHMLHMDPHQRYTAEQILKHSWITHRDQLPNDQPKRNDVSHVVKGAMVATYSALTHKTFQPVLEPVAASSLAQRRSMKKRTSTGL
# Sequence of Cyclin-dependent kinase-like 5 (Homo sapiens) (O76039 whole entry): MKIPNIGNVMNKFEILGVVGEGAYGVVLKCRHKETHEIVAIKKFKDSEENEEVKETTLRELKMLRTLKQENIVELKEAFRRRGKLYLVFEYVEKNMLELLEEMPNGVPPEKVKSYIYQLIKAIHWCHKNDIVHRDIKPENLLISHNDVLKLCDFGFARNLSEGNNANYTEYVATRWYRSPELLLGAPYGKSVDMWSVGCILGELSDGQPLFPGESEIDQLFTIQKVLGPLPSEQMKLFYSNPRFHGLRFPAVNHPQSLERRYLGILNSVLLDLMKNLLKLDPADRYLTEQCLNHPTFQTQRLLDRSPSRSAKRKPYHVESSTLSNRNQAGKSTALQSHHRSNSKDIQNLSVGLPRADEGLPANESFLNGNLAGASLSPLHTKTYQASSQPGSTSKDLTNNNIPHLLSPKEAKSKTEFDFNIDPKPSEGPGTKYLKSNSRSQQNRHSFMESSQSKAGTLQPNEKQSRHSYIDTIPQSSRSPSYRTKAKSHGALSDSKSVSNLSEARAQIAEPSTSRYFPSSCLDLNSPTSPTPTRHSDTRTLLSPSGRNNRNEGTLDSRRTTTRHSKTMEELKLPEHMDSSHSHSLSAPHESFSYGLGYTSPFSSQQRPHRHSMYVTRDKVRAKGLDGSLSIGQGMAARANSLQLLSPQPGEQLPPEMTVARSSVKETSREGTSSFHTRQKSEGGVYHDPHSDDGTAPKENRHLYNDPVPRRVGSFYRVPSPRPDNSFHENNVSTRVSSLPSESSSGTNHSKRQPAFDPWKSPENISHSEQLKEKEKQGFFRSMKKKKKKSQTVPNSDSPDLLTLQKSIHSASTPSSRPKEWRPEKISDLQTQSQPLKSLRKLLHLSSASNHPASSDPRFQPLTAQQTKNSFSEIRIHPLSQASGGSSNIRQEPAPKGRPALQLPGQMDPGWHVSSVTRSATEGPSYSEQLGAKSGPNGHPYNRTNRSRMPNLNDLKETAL
# Sequence of MAP kinase-interacting serine/threonine-protein kinase 2 (Homo sapiens) (Q9HBH9 whole entry, looked up): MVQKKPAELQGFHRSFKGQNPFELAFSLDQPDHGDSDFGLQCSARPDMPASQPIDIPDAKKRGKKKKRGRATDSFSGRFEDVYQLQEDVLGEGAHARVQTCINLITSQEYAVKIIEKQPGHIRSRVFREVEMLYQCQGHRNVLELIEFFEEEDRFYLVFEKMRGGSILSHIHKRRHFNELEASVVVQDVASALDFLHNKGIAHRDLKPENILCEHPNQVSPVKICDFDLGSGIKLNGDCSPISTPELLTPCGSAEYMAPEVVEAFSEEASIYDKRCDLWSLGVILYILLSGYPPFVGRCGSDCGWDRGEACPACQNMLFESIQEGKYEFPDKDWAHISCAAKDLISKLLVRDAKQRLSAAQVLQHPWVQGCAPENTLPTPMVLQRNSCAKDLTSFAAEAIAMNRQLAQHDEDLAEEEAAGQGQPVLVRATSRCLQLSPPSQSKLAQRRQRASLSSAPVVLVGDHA
# Sequence of Phosphatidylinositol 4,5-bisphosphate 3-kinase catalytic subunit alpha isoform (Homo sapiens), P42336 [H1047Y] (P42336 whole entry H1047Y, canonical isoform): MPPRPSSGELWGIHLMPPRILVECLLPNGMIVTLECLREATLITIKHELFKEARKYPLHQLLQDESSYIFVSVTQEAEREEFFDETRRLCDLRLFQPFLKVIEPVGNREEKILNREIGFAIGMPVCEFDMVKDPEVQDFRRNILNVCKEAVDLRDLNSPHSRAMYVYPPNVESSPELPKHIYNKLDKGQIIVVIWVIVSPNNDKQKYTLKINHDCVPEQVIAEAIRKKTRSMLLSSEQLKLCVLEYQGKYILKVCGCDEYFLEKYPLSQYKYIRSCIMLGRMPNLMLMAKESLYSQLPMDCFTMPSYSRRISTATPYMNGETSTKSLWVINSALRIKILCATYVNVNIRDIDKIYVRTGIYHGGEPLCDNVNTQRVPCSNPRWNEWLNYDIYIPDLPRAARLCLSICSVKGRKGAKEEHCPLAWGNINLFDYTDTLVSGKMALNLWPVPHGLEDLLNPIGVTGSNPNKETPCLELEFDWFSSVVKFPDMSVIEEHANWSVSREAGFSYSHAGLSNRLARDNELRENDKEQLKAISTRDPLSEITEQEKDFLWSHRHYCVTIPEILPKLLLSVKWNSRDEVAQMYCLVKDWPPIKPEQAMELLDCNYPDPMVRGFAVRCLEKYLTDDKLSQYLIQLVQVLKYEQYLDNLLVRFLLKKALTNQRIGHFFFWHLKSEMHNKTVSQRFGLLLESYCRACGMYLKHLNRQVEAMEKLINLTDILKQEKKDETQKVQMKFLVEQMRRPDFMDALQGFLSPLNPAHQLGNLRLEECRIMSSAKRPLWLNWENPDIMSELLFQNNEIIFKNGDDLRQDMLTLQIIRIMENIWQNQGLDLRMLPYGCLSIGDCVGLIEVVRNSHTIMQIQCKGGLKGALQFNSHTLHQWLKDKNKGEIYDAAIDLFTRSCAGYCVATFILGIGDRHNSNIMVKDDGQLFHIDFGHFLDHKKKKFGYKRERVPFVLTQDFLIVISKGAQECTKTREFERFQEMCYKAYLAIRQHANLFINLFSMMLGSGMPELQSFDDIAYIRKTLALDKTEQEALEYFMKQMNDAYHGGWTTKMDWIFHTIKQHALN
# Sequence of Myosin light chain kinase family member 4 (Homo sapiens) (Q86YV6 whole entry): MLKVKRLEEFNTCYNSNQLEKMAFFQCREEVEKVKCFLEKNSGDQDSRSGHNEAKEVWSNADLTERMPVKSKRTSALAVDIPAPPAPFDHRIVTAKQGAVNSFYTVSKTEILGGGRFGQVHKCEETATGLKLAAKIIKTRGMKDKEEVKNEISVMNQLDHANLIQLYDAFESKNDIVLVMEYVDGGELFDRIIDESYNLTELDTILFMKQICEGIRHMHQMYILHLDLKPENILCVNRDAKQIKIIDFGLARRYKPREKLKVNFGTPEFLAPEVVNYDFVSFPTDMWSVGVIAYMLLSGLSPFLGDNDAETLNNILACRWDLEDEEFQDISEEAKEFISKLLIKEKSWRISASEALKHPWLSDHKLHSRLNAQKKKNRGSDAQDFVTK
compound,measurement,setting,value
CN(C)C(=O)c1ccc(N2CCCN(c3ccnc4sc(C(N)=O)c(N)c34)CC2)cc1,Activity,[1],95% and 97%
same,Activity,[2],95% and 87%
same,Activity,[3],100%
same,Activity,[4],83% and 80%
same,Activity,[5],95% and 83%
same,Activity,[6],80% and 96%
same,Activity,[7],95% and 78%
same,Activity,[8],84% and 79%
same,Activity,[9],92% and 97%
same,Activity,[10],100% and 75%
same,Activity,[11],100% and 99%
same,Activity,[12],84% and 90%
same,Activity,[13],79% and 100%
same,Activity,[14],94% and 75%
same,Activity,[15],100% and 94%
same,Activity,[16],96% and 100%
same,Activity,[17],91% and 100%
same,Activity,[18],100%
same,Activity,[19],91% and 90%
same,Activity,[20],88% and 82%
same,Activity,[21],99% and 100%
same,Activity,[22],86% and 83%
same,Activity,[23],91%
same,Activity,[23]; INHIBITOR,44%
same,Activity,[24],100% and 84%
same,Activity,[25],95% and 100%
same,Activity,[26],95% and 89%
same,Activity,[27],83% and 69%
same,Activity,[28],99% and 98%
same,Activity,[29],78% and 80%
same,Activity,[30],75% and 100%
same,Activity,[31],90% and 77%

# Reference: ChEMBL document CHEMBL4804286, “3-amino-4-(4-(4 (dimethylcarbamoyl) phenyl)-1,4-diazepan-1-yl) thieno [2,3-b] pyridine-2-carboxamide for use in cancer therapy and formulations comprising the same” (2020)
